Measurements from patent US20200171117A1, “DRY EYE BOTANICALS” (ACCESS BUSINESS GROUP INTERNATIONAL LLC, priority 2018, published 2020).
Where “and” joins values, the source holds several entries; their conditions need not be identical. Equal entries are not always repeated.

Legend:
[1] = test system: HMGEC (immortalized human meibomian gland epithelial cells); test: PPARγ-mediated lipid synthesis activity in HMGECs (LipidTox Green neutral lipid staining); assay type: cell-based; settings: for Effect on lipid synthesis (in words): compared with Rosi
Method: Extracts of loquat and ginger identified in Example 1 are tested for their effect on lipid synthesis and PPARγ receptor activation using HMGECs. In particular, HMGECs are plated on collagen coated glass cover slips and treated with samples of each extract (varying concentrations in Media 1 with 0.1% DMSO), positive control (Rosi, 30 μM in Media 1 with 0.1% DMSO), and negative control (Media 1 with 0.1% DMSO) and incubated for 6 days. The treated cells are then fixed, stained with LipidTox Green, and the area of neutral lipid staining quantified.

[2] = test system: PPARγ response genes ADFP, ELOVL4, and ANGPTL4; test: Real-time PCR of PPARγ response gene expression; assay type: cell-based; settings: FIGS. 1-4
Method: Loquat Extract #1 (“538”), and known phytochemical components thereof (oleanolic acid (“OA”); ursolic acid (“UA”)), are analyzed by real-time PCR (BioRad CFX96 Thermal Cycler, Hercules, Calif. (or equivalent)), to assess sample-induced expression of the PPARγ response genes ADFP, ELOVL4, and ANGPTL4 via mRNA quantification. In particular, samples are prepared and analyzed according to the procedure set forth in Jester et. al., “PPARγ regulates mouse meibocyte differentiation and lipid synthesis,” The Ocular Surface 14.4 (2016): 484-494, the disclosure of which is herein incorporated by […]. The results of the quantification are shown in FIGS. 1-4, where the vertical (Y) axis of each plot corresponds to the fold change in response observed.
To assess the effects on gene expression mediation via PPARγ signaling, a PPARγ-specific antagonist (T0070907; (“T”)) is added to inhibit PPARγ signaling. […] As such, Loquat leaf is shown to have specific and synergistic PPARγ agonist activity that may be unrelated to individual phytochemical components thereof.

## CC1(C)CC[C@]2(C(=O)O)CC[C@]3(C)C(=CC[C@@H]4[C@@]5(C)CC[C@H](O)C(C)(C)[C@@H]5CC[C@]43C)[C@@H]2C1 [oleanolic acid]
[1]
  Effect on lipid synthesis (in words): no individual effects
[2]
  PPARγ response gene expression (mRNA of ADFP, ELOVL4, ANGPTL4; PPARγ), fold change, in words: no individual effects

## CN(CCOc1ccc(CC2SC(=O)NC2=O)cc1)c1ccccn1 (stereo not drawn) [Rosi, Rosiglitazone]
[1]; 30 μM, 6 days
  % Lipid Mean (percent positive control, Rosi set at 100%): 97.5% and 100%
  Nuclei Mean: 1622.13 and 1070

## C[C@H]1[C@H](C)CC[C@]2(C(=O)O)CC[C@]3(C)C(=CC[C@@H]4[C@@]5(C)CC[C@H](O)C(C)(C)[C@@H]5CC[C@]43C)[C@H]12 [ursolic acid]
[1]
  Effect on lipid synthesis (in words): no individual effects
[2]
  PPARγ response gene expression (mRNA of ADFP, ELOVL4, ANGPTL4; PPARγ), fold change, in words: no individual effects
